Test results published in ChEMBL document CHEMBL1828549, “Novel C-4'' modified azithromycin analogs with remarkably enhanced activity against erythromycin-resistant Streptococcus pneumoniae: the synthesis and antimicrobial evaluation” (2011).
Values after ≈ are worked out from the molar mass of the structure shown.

Assays:
Format in all cases: functional
Streptococcus pneumoniae [1] = assay: Antibacterial activity against erythromycin-susceptible Streptococcus pneumoniae ATCC 49619 by the broth microdilution method
Streptococcus pneumoniae [2] = assay: Antibacterial activity against erythromycin-resistant Streptococcus pneumoniae B1 expressing erm gene by the broth microdilution method
Staphylococcus aureus [3] = assay: Antibacterial activity against […] Staphylococcus aureus ATCC 29213 by the broth microdilution method
Streptococcus pneumoniae [4] = assay: Antibacterial activity against erythromycin-resistant Streptococcus pneumoniae A22072 expressing mef gene by the broth microdilution method
Staphylococcus aureus [5] = assay: Antibacterial activity against erythromycin-susceptible Staphylococcus aureus ATCC 25923 by the broth microdilution method
Staphylococcus aureus [6] = assay: Antibacterial activity against penicillin-resistant Staphylococcus aureus by the broth microdilution method
Streptococcus pneumoniae [7] = assay: Antibacterial activity against erythromycin-resistant Streptococcus pneumoniae AB11 expressing erm and mef gene by the broth microdilution method

SMILES	MIC (Streptococcus pneumoniae [1]) [µg/mL]	MIC (Streptococcus pneumoniae [2]) [µg/mL]	MIC (Staphylococcus aureus [3]) [µg/mL]	MIC (Streptococcus pneumoniae [4]) [µg/mL]	MIC (Staphylococcus aureus [5]) [µg/mL]	MIC (Staphylococcus aureus [6]) [µg/mL]	MIC (Streptococcus pneumoniae [7]) [µg/mL]
CC[C@H]1OC(=O)[C@H](C)[C@@H](O[C@H]2C[C@@](C)(OC)[C@@H](OC(=O)NCCCCNC(=O)c3ccc(Cl)cc3Cl)[C@H](C)O2)[C@H](C)[C@@H](O[C@@H]2O[C@H](C)C[C@H](N(C)C)[C@H]2O)[C@](C)(O)C[C@@H](C)CN(C)[C@H](C)[C@H]2OC(=O)O[C@@]21C	1 (≈ 0.941 µM)	4 (≈ 3.77 µM)	16 (≈ 15.1 µM)	1 (≈ 0.941 µM)	2 (≈ 1.88 µM)	64 (≈ 60.3 µM)	16 (≈ 15.1 µM)
CC[C@H]1OC(=O)[C@H](C)[C@@H](O[C@H]2C[C@@](C)(OC)[C@@H](OC(=O)NNC(=O)c3cc([N+](=O)[O-])cc([N+](=O)[O-])c3)[C@H](C)O2)[C@H](C)[C@@H](O[C@@H]2O[C@H](C)C[C@H](N(C)C)[C@H]2O)[C@](C)(O)C[C@@H](C)CN(C)[C@H](C)[C@H]2OC(=O)O[C@@]21C	0.5 (≈ 0.487 µM)	16 (≈ 15.6 µM)	4 (≈ 3.89 µM)	0.25 (≈ 0.243 µM)	4 (≈ 3.89 µM)	4 (≈ 3.89 µM)	32 (≈ 31.2 µM)
CC[C@H]1OC(=O)[C@H](C)[C@@H](O[C@H]2C[C@@](C)(OC)[C@@H](OC(=O)NCCNC(=O)c3ccc(OC)cc3)[C@H](C)O2)[C@H](C)[C@@H](O[C@@H]2O[C@H](C)C[C@H](N(C)C)[C@H]2O)[C@](C)(O)C[C@@H](C)CN(C)[C@H](C)[C@H]2OC(=O)O[C@@]21C	4 (≈ 4.02 µM)	32 (≈ 32.2 µM)	16 (≈ 16.1 µM)	4 (≈ 4.02 µM)	4 (≈ 4.02 µM)	4 (≈ 4.02 µM)	64 (≈ 64.3 µM)
CC[C@H]1OC(=O)[C@H](C)[C@@H](O[C@H]2C[C@@](C)(OC)[C@@H](OC(=O)NNC(=O)c3ccc(Br)cc3)[C@H](C)O2)[C@H](C)[C@@H](O[C@@H]2O[C@H](C)C[C@H](N(C)C)[C@H]2O)[C@](C)(O)C[C@@H](C)CN(C)[C@H](C)[C@H]2OC(=O)O[C@@]21C	1 (≈ 0.984 µM)	4 (≈ 3.94 µM)	1 (≈ 0.984 µM)	0.12 (≈ 0.118 µM)	2 (≈ 1.97 µM)	4 (≈ 3.94 µM)	16 (≈ 15.7 µM)
CC[C@H]1OC(=O)[C@H](C)[C@@H](O[C@H]2C[C@@](C)(OC)[C@@H](O)[C@H](C)O2)[C@H](C)[C@@H](O[C@@H]2O[C@H](C)C[C@H](N(C)C)[C@H]2O)[C@](C)(O)C[C@@H](C)C(=O)[C@H](C)[C@@H](O)[C@]1(C)O [ERYTHROMYCIN]	0.03 (≈ 0.0409 µM)	128 (≈ 174 µM)	0.12 (≈ 0.164 µM)	8 (≈ 10.9 µM)	0.06 (≈ 0.0818 µM)	0.25 (≈ 0.341 µM)	256 (≈ 349 µM)
CC[C@H]1OC(=O)[C@H](C)[C@@H](O[C@H]2C[C@@](C)(OC)[C@@H](OC(=O)NCCCCNC(=O)c3ccc([N+](=O)[O-])cc3)[C@H](C)O2)[C@H](C)[C@@H](O[C@@H]2O[C@H](C)C[C@H](N(C)C)[C@H]2O)[C@](C)(O)C[C@@H](C)CN(C)[C@H](C)[C@H]2OC(=O)O[C@@]21C	0.12 (≈ 0.116 µM)	2 (≈ 1.93 µM)	4 (≈ 3.85 µM)	0.5 (≈ 0.482 µM)	4 (≈ 3.85 µM)	32 (≈ 30.8 µM)	16 (≈ 15.4 µM)
CC[C@H]1OC(=O)[C@H](C)[C@@H](O[C@H]2C[C@@](C)(OC)[C@@H](OC(=O)NCCCCNC(=O)c3ccc(Cl)cc3)[C@H](C)O2)[C@H](C)[C@@H](O[C@@H]2O[C@H](C)C[C@H](N(C)C)[C@H]2O)[C@](C)(O)C[C@@H](C)CN(C)[C@H](C)[C@H]2OC(=O)O[C@@]21C	0.5 (≈ 0.487 µM)	8 (≈ 7.78 µM)	8 (≈ 7.78 µM)	1 (≈ 0.973 µM)	4 (≈ 3.89 µM)	64 (≈ 62.3 µM)	16 (≈ 15.6 µM)
CC[C@H]1OC(=O)[C@H](C)[C@@H](O[C@H]2C[C@@](C)(OC)[C@@H](OC(=O)NNC(=O)c3ccc([N+](=O)[O-])cc3)[C@H](C)O2)[C@H](C)[C@@H](O[C@@H]2O[C@H](C)C[C@H](N(C)C)[C@H]2O)[C@](C)(O)C[C@@H](C)CN(C)[C@H](C)[C@H]2OC(=O)O[C@@]21C	0.25 (≈ 0.255 µM)	16 (≈ 16.3 µM)	4 (≈ 4.07 µM)	1 (≈ 1.02 µM)	4 (≈ 4.07 µM)	4 (≈ 4.07 µM)	32 (≈ 32.6 µM)
CC[C@H]1OC(=O)[C@H](C)[C@@H](O[C@H]2C[C@@](C)(OC)[C@@H](OC(=O)NCCCCNC(=O)c3ccccc3OC)[C@H](C)O2)[C@H](C)[C@@H](O[C@@H]2O[C@H](C)C[C@H](N(C)C)[C@H]2O)[C@](C)(O)C[C@@H](C)CN(C)[C@H](C)[C@H]2OC(=O)O[C@@]21C	2 (≈ 1.95 µM)	4 (≈ 3.91 µM)	16 (≈ 15.6 µM)	0.5 (≈ 0.489 µM)	4 (≈ 3.91 µM)	32 (≈ 31.3 µM)	16 (≈ 15.6 µM)
CC[C@H]1OC(=O)[C@H](C)[C@@H](O[C@H]2C[C@@](C)(OC)[C@@H](OC(=O)NNC(=O)c3ccc(F)cc3)[C@H](C)O2)[C@H](C)[C@@H](O[C@@H]2O[C@H](C)C[C@H](N(C)C)[C@H]2O)[C@](C)(O)C[C@@H](C)CN(C)[C@H](C)[C@H]2OC(=O)O[C@@]21C	4 (≈ 4.19 µM)	32 (≈ 33.5 µM)	32 (≈ 33.5 µM)	1 (≈ 1.05 µM)	4 (≈ 4.19 µM)	4 (≈ 4.19 µM)	64 (≈ 67 µM)
CC[C@H]1OC(=O)[C@H](C)[C@@H](O[C@H]2C[C@@](C)(OC)[C@@H](OC(=O)NCCCCNC(=O)c3ccc(F)cc3)[C@H](C)O2)[C@H](C)[C@@H](O[C@@H]2O[C@H](C)C[C@H](N(C)C)[C@H]2O)[C@](C)(O)C[C@@H](C)CN(C)[C@H](C)[C@H]2OC(=O)O[C@@]21C	0.5 (≈ 0.494 µM)	32 (≈ 31.6 µM)	16 (≈ 15.8 µM)	8 (≈ 7.91 µM)	8 (≈ 7.91 µM)	32 (≈ 31.6 µM)	64 (≈ 63.3 µM)
CC[C@H]1OC(=O)[C@H](C)[C@@H](O[C@H]2C[C@@](C)(OC)[C@@H](OC(=O)NCCCCNC(=O)c3ccc(OC)c(OC)c3)[C@H](C)O2)[C@H](C)[C@@H](O[C@@H]2O[C@H](C)C[C@H](N(C)C)[C@H]2O)[C@](C)(O)C[C@@H](C)CN(C)[C@H](C)[C@H]2OC(=O)O[C@@]21C	2 (≈ 1.9 µM)	32 (≈ 30.4 µM)	64 (≈ 60.8 µM)	1 (≈ 0.949 µM)	8 (≈ 7.6 µM)	16 (≈ 15.2 µM)	32 (≈ 30.4 µM)
CC[C@H]1OC(=O)[C@H](C)[C@@H](O[C@H]2C[C@@](C)(OC)[C@@H](OC(=O)NCCCCNC(=O)c3ccc(C)cc3)[C@H](C)O2)[C@H](C)[C@@H](O[C@@H]2O[C@H](C)C[C@H](N(C)C)[C@H]2O)[C@](C)(O)C[C@@H](C)CN(C)[C@H](C)[C@H]2OC(=O)O[C@@]21C	0.5 (≈ 0.496 µM)	8 (≈ 7.94 µM)	32 (≈ 31.8 µM)	1 (≈ 0.993 µM)	4 (≈ 3.97 µM)	64 (≈ 63.5 µM)	16 (≈ 15.9 µM)
CC[C@H]1OC(=O)[C@H](C)[C@@H](O[C@H]2C[C@@](C)(OC)[C@@H](OC(=O)NCCNC(=O)c3ccc(C)cc3)[C@H](C)O2)[C@H](C)[C@@H](O[C@@H]2O[C@H](C)C[C@H](N(C)C)[C@H]2O)[C@](C)(O)C[C@@H](C)CN(C)[C@H](C)[C@H]2OC(=O)O[C@@]21C	1 (≈ 1.02 µM)	8 (≈ 8.17 µM)	16 (≈ 16.3 µM)	0.25 (≈ 0.255 µM)	4 (≈ 4.08 µM)	4 (≈ 4.08 µM)	16 (≈ 16.3 µM)
CC[C@H]1OC(=O)[C@H](C)[C@@H](O[C@H]2C[C@@](C)(OC)[C@@H](OC(=O)NCCNC(=O)c3ccc(Cl)cc3Cl)[C@H](C)O2)[C@H](C)[C@@H](O[C@@H]2O[C@H](C)C[C@H](N(C)C)[C@H]2O)[C@](C)(O)C[C@@H](C)CN(C)[C@H](C)[C@H]2OC(=O)O[C@@]21C	0.5 (≈ 0.484 µM)	16 (≈ 15.5 µM)	8 (≈ 7.74 µM)	2 (≈ 1.93 µM)	4 (≈ 3.87 µM)	4 (≈ 3.87 µM)	64 (≈ 61.9 µM)
CC[C@H]1OC(=O)[C@H](C)[C@@H](O[C@H]2C[C@@](C)(OC)[C@@H](OC(=O)NNC(=O)c3ccc(Cl)cc3Cl)[C@H](C)O2)[C@H](C)[C@@H](O[C@@H]2O[C@H](C)C[C@H](N(C)C)[C@H]2O)[C@](C)(O)C[C@@H](C)CN(C)[C@H](C)[C@H]2OC(=O)O[C@@]21C	1 (≈ 0.994 µM)	4 (≈ 3.98 µM)	16 (≈ 15.9 µM)	0.25 (≈ 0.249 µM)	4 (≈ 3.98 µM)	16 (≈ 15.9 µM)	16 (≈ 15.9 µM)
